{
  "source": "paper PMC9944328",
  "about": "(Nature Communications, 2023)",
  "key": {"SSTR2 mutants [1]": {"system": "SSTR2 mutants", "test": "Bystander BRET endosomal trafficking (β-arrestin 1-Nluc, FYVE-mVenus), HEK293 (SSTR2 mutants);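 further: Read-out is the BRET ratio between Nluc-fused β-arrestin 1 and the early endosome marker FYVE-mVenus, measured after ligand addition with coelenterazine h as substrate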;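 on Span: percent of maximal wild-type response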;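 on Top: percent of maximal wild-type response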"}, "SSTR2 mutants [2]": {"target": "SSTR2 mutants (Homo sapiens, UniProt P30874, R140A)", "sequence (P30874 whole entry R140A)": "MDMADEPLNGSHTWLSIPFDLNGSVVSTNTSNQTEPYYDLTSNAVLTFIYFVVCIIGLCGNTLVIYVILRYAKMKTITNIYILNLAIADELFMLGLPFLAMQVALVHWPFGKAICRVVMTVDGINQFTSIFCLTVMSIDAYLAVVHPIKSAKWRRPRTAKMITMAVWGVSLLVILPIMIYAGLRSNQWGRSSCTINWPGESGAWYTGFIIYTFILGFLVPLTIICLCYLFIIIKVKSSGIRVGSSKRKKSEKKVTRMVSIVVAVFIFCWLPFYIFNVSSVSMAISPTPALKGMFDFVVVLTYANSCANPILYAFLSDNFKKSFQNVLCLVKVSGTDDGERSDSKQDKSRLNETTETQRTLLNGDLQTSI", "test": "Bystander BRET endosomal trafficking (β-arrestin 1-Nluc, FYVE-mVenus), HEK293 (SSTR2 mutants)"}, "SSTR2 mutants [3]": {"system": "SSTR2 mutants", "test": "SSTR2 internalization by ELISA, HEK293, 30 min 37 °C (mutants)", "format": "cell-based, human", "settings": "I284ECL3A, K291A, N276A, F294A, Bystander BRET or confocal", "experimental": "HEK293 cells were seeded into 96-well microplates at a density of 4 × 10^4 cells/well and cultured for 24 h at 37 °C with 5% CO2 and were transfected using the same procedure as the cAMP accumulation assay. The plates were washed with washing buffer (PBS) the day after transfection, and were fixed with 4% formalin at room temperature for 30 min. Cells were washed with washing buffer and blocked with PBS supplemented with 5% BSA for 1 h at room temperature. After that, cells were incubated with anti-Flag antibody (1:1000 diluted with PBS containing 5% BSA, Proteintech: 66008-4-Ig) for 1 h at room temperature. After 1 h incubation, cells were washed with washing buffer and incubating with HRP-conjugated secondary antibody for 2 h at room temperature. After incubating and washing, 50 μl of chromogenic solution was added to each well, and reacted at room temperature for 10 min, and then 0.5 M HCl were added to stop the reaction.\nAll data presented are means at least three independent experiments."}, "[4]": {"settings": "best-fit value, F265A-1 (run 1)"}, "[5]": {"settings": "best-fit value, F265A-2 (run 2)"}, "[6]": {"settings": "best-fit value, F265A-3 (run 3)"}, "[7]": {"settings": "best-fit value, F294A-1 (run 1)"}, "[8]": {"settings": "best-fit value, F294A-2 (run 2)"}, "[9]": {"settings": "best-fit value, F294A-3 (run 3)"}, "[10]": {"settings": "best-fit value, I284A-1 (run 1)"}, "[11]": {"settings": "best-fit value, I284A-2 (run 2)"}, "[12]": {"settings": "best-fit value, I284A-3 (run 3)"}, "[13]": {"settings": "best-fit value, K291A-1 (run 1)"}, "[14]": {"settings": "best-fit value, K291A-2 (run 2)"}, "[15]": {"settings": "best-fit value, K291A-3 (run 3)"}, "[16]": {"settings": "best-fit value, N276A-1 (run 1)"}, "[17]": {"settings": "best-fit value, N276A-2 (run 2)"}, "[18]": {"settings": "best-fit value, N276A-3 (run 3)"}},
  "note": "Read-outs that look alike come from different tables or passages of the source.",
  "data": [
    {"smiles": "N#Cc1cccc(-c2ccc3ncc(-c4cc(F)cc(F)c4)c(N4CCC(N)CC4)c3c2)c1O", "note": "[paltusotine]", "values": [
      {"measurement": "Span", "setting": "SSTR2 mutants [1]; [4]", "result": 10.7},
      {"measurement": "Top", "setting": "SSTR2 mutants [1]; [4]", "result": 10.68},
      {"measurement": "LogEC50", "setting": "SSTR2 mutants [1]; [5]", "result": -7.219},
      {"measurement": "Span", "setting": "SSTR2 mutants [1]; [5]", "result": 0.6462},
      {"measurement": "Top", "setting": "SSTR2 mutants [1]; [5]", "result": -7.332},
      {"measurement": "EC50", "setting": "SSTR2 mutants [1]; [6]", "result": 14.7, "unit": "µM"},
      {"measurement": "LogEC50", "setting": "SSTR2 mutants [1]; [6]", "result": -4.832},
      {"measurement": "Span", "setting": "SSTR2 mutants [1]; [6]", "result": 19.35},
      {"measurement": "Top", "setting": "SSTR2 mutants [1]; [6]", "result": 19.15},
      {"measurement": "EC50", "setting": "SSTR2 mutants [1]; [7]", "result": 2.09, "unit": "µM"},
      {"measurement": "LogEC50", "setting": "SSTR2 mutants [1]; [7]", "result": -5.679},
      {"measurement": "Span", "setting": "SSTR2 mutants [1]; [7]", "result": 94.38},
      {"measurement": "Top", "setting": "SSTR2 mutants [1]; [7]", "result": 95.1},
      {"measurement": "EC50", "setting": "SSTR2 mutants [1]; [8]", "result": 1.28, "unit": "µM"},
      {"measurement": "LogEC50", "setting": "SSTR2 mutants [1]; [8]", "result": -5.892},
      {"measurement": "Span", "setting": "SSTR2 mutants [1]; [8]", "result": 84.17},
      {"measurement": "Top", "setting": "SSTR2 mutants [1]; [8]", "result": 81.83},
      {"measurement": "EC50", "setting": "SSTR2 mutants [1]; [9]", "result": 1.57, "unit": "µM"},
      {"measurement": "LogEC50", "setting": "SSTR2 mutants [1]; [9]", "result": -5.803},
      {"measurement": "Span", "setting": "SSTR2 mutants [1]; [9]", "result": 87.18},
      {"measurement": "Top", "setting": "SSTR2 mutants [1]; [9]", "result": 86.4},
      {"measurement": "EC50", "setting": "SSTR2 mutants [1]; [10]", "result": 0.0712, "unit": "µM"},
      {"measurement": "LogEC50", "setting": "SSTR2 mutants [1]; [10]", "result": -7.148},
      {"measurement": "Span", "setting": "SSTR2 mutants [1]; [10]", "result": 95.18},
      {"measurement": "Top", "setting": "SSTR2 mutants [1]; [10]", "result": 94.55},
      {"measurement": "EC50", "setting": "SSTR2 mutants [1]; [11]", "result": 0.0841, "unit": "µM"},
      {"measurement": "LogEC50", "setting": "SSTR2 mutants [1]; [11]", "result": -7.075},
      {"measurement": "Span", "setting": "SSTR2 mutants [1]; [11]", "result": 103.8},
      {"measurement": "Top", "setting": "SSTR2 mutants [1]; [11]", "result": 105.1},
      {"measurement": "EC50", "setting": "SSTR2 mutants [1]; [12]", "result": 0.0826, "unit": "µM"},
      {"measurement": "LogEC50", "setting": "SSTR2 mutants [1]; [12]", "result": -7.083},
      {"measurement": "Span", "setting": "SSTR2 mutants [1]; [12]", "result": 102.7},
      {"measurement": "Top", "setting": "SSTR2 mutants [1]; [12]", "result": 102.8},
      {"measurement": "EC50", "setting": "SSTR2 mutants [1]; [13]", "result": 0.0357, "unit": "µM"},
      {"measurement": "LogEC50", "setting": "SSTR2 mutants [1]; [13]", "result": -7.448},
      {"measurement": "Span", "setting": "SSTR2 mutants [1]; [13]", "result": 68.73},
      {"measurement": "Top", "setting": "SSTR2 mutants [1]; [13]", "result": 69.72},
      {"measurement": "EC50", "setting": "SSTR2 mutants [1]; [14]", "result": 0.0839, "unit": "µM"},
      {"measurement": "LogEC50", "setting": "SSTR2 mutants [1]; [14]", "result": -7.076},
      {"measurement": "Span", "setting": "SSTR2 mutants [1]; [14]", "result": 87.08},
      {"measurement": "Top", "setting": "SSTR2 mutants [1]; [14]", "result": 83.73},
      {"measurement": "EC50", "setting": "SSTR2 mutants [1]; [15]", "result": 0.0302, "unit": "µM"},
      {"measurement": "LogEC50", "setting": "SSTR2 mutants [1]; [15]", "result": -7.52},
      {"measurement": "Span", "setting": "SSTR2 mutants [1]; [15]", "result": 76.1},
      {"measurement": "Top", "setting": "SSTR2 mutants [1]; [15]", "result": 71.42},
      {"measurement": "EC50", "setting": "SSTR2 mutants [1]; [16]", "result": 0.14, "unit": "µM"},
      {"measurement": "LogEC50", "setting": "SSTR2 mutants [1]; [16]", "result": -6.855},
      {"measurement": "Span", "setting": "SSTR2 mutants [1]; [16]", "result": 79.71},
      {"measurement": "Top", "setting": "SSTR2 mutants [1]; [16]", "result": 79.77},
      {"measurement": "EC50", "setting": "SSTR2 mutants [1]; [17]", "result": 0.11, "unit": "µM"},
      {"measurement": "LogEC50", "setting": "SSTR2 mutants [1]; [17]", "result": -6.96},
      {"measurement": "Span", "setting": "SSTR2 mutants [1]; [17]", "result": 78.62},
      {"measurement": "Top", "setting": "SSTR2 mutants [1]; [17]", "result": 78.47},
      {"measurement": "EC50", "setting": "SSTR2 mutants [1]; [18]", "result": 0.1, "unit": "µM"},
      {"measurement": "LogEC50", "setting": "SSTR2 mutants [1]; [18]", "result": -7},
      {"measurement": "Span", "setting": "SSTR2 mutants [1]; [18]", "result": 73.41},
      {"measurement": "Top", "setting": "SSTR2 mutants [1]; [18]", "result": 70.97},
      {"measurement": "EC50", "setting": "SSTR2 mutants [1]; read-out: EC50 (best-fit), I130A-1 (run 1)", "result": "~7970", "unit": "µM"},
      {"measurement": "EC50", "setting": "SSTR2 mutants [1]; read-out: EC50 (best-fit), I130A-2 (run 2)", "result": 0.000139, "unit": "µM"},
      {"measurement": "EC50", "setting": "SSTR2 mutants [1]; read-out: EC50 (best-fit), I130A-3 (run 3)", "result": 0.00034, "unit": "µM"},
      {"measurement": "EC50", "setting": "SSTR2 mutants [1]; read-out: EC50 (best-fit), P220A-1 (run 1)", "result": 0.184, "unit": "µM"},
      {"measurement": "EC50", "setting": "SSTR2 mutants [1]; read-out: EC50 (best-fit), P220A-2 (run 2)", "result": "~7280", "unit": "µM"},
      {"measurement": "EC50", "setting": "SSTR2 mutants [1]; read-out: EC50 (best-fit), P220A-3 (run 3)", "result": 0.831, "unit": "µM"},
      {"measurement": "EC50", "setting": "SSTR2 mutants [1]; read-out: EC50 (best-fit), R140A-1 (run 1)", "result": 0.00467, "unit": "µM"},
      {"measurement": "EC50", "setting": "SSTR2 mutants [1]; read-out: EC50 (best-fit), R140A-2 (run 2)", "result": 0.00664, "unit": "µM"},
      {"measurement": "EC50", "setting": "SSTR2 mutants [1]; read-out: EC50 (best-fit), R140A-3 (run 3)", "result": 0.00659, "unit": "µM"},
      {"measurement": "EC50", "setting": "SSTR2 mutants [1]; read-out: EC50 (best-fit), W269A-1 (run 1)", "result": 0.13, "unit": "µM"},
      {"measurement": "EC50", "setting": "SSTR2 mutants [1]; read-out: EC50 (best-fit), W269A-2 (run 2)", "result": 0.476, "unit": "µM"},
      {"measurement": "EC50", "setting": "SSTR2 mutants [1]; read-out: EC50 (best-fit), W269A-3 (run 3)", "result": 0.155, "unit": "µM"},
      {"measurement": "EC50", "setting": "SSTR2 mutants [1]; read-out: EC50 (best-fit), Y312A-1 (run 1)", "result": 0.00818, "unit": "µM"},
      {"measurement": "EC50", "setting": "SSTR2 mutants [1]; read-out: EC50 (best-fit), Y312A-2 (run 2)", "result": 0.0115, "unit": "µM"},
      {"measurement": "EC50", "setting": "SSTR2 mutants [1]; read-out: EC50 (best-fit), Y312A-3 (run 3)", "result": 0.00641, "unit": "µM"},
      {"measurement": "Bottom (best-fit)", "setting": "SSTR2 mutants [2]; R140A-1 (run 1)", "result": -0.6263},
      {"measurement": "Bottom (best-fit)", "setting": "SSTR2 mutants [2]; R140A-2 (run 2)", "result": -11.29},
      {"measurement": "Bottom (best-fit)", "setting": "SSTR2 mutants [2]; R140A-3 (run 3)", "result": 0.1772},
      {"measurement": "Internalization of mutants", "setting": "SSTR2 mutants [3]", "result": "slightly change in the internalization"}
    ]}
  ]
}
